Source: US5604234A, “Substituted thiol macrolactam immunomodulators” (Abbott Laboratories, priority 1995, dated 1997)

Tested on: human mixed lymphocyte reaction (MLR)
Assay: human mixed lymphocyte reaction (MLR), serum free variation
Format: cell-based
Conditions: serum-free medium AIM V, Table 3
Experimental: In vitro Assay of Biological Activity (Serum Free MLR)
The in viitro immunosuppressant activity of the compounds of the present invention can also be determined using a variation of the human mixed lymphocyte reaction (MLR) assay described by Kino, T. et al. in Transplantation Proceedings, XIX(5):36-39, Suppl. 6 (1987). In this assay, the cell culture was performed in a serum-free medium, AIM V (GibcoBRL Life Technologies, Grand Island, N.Y.), instead of the usual RPMI 1640 plus 10% heat-inactivated fetal bovine serum medium. The final cell concentrations of the responder and stimulator peripheral blood mononuclear cells were, respectively, 5×10^5/mL and 2×10^6/mL of cells pooled from four donors.

IC50 (Homo sapiens, Lymphocyte) [nM] | IC50 [nM] | SMILES
8.7 |  | CC[C@@H]1/C=C(\C)C[C@H](C)C[C@H](OC)[C@H]2O[C@@](O)(C(=O)C(=O)N3CCCC[C@H]3C(=O)O[C@H](/C(C)=C/[C@@H]3CC[C@H]([S+]([O-])CC(=O)OCc4ccccc4)[C@H](OC)C3)[C@H](C)[C@@H](O)CC1=O)[C@H](C)C[C@@H]2OC (single isomer, unassigned) [Example 54]
29.2 |  | CC[C@@H]1/C=C(\C)C[C@H](C)C[C@H](OC)[C@H]2O[C@@](O)(C(=O)C(=O)N3CCCC[C@H]3C(=O)O[C@H](/C(C)=C/[C@@H]3CC[C@H]([S+]([O-])CCC(=O)OCc4ccccc4)[C@H](OC)C3)[C@H](C)[C@@H](O)CC1=O)[C@H](C)C[C@@H]2OC (single isomer, unassigned) [Example 62]
32 |  | CC[C@@H]1/C=C(\C)C[C@H](C)C[C@H](OC)[C@H]2O[C@@](O)(C(=O)C(=O)N3CCCC[C@H]3C(=O)O[C@H](/C(C)=C/[C@@H]3CC[C@H]([S+]([O-])CCC(=O)OC(C)C)[C@H](OC)C3)[C@H](C)[C@@H](O)CC1=O)[C@H](C)C[C@@H]2OC (single isomer, unassigned) [Example 65]
25.6 |  | CCC(CC)OC(=O)CC[S+]([O-])[C@H]1CC[C@@H](/C=C(\C)[C@H]2OC(=O)[C@@H]3CCCCN3C(=O)C(=O)[C@]3(O)O[C@H]([C@@H](OC)C[C@@H](C)C/C(C)=C/[C@@H](CC)C(=O)C[C@H](O)[C@H]2C)[C@@H](OC)C[C@H]3C)C[C@H]1OC (single isomer, unassigned) [Example 67]
6.24 |  | CC[C@@H]1/C=C(\C)C[C@H](C)C[C@H](OC)[C@H]2O[C@@](O)(C(=O)C(=O)N3CCCC[C@H]3C(=O)O[C@H](/C(C)=C/[C@@H]3CC[C@H]([S+]([O-])CCC(=O)N(C)O)[C@H](OC)C3)[C@H](C)[C@@H](O)CC1=O)[C@H](C)C[C@@H]2OC (single isomer, unassigned) [Example 69]
9.6 |  | CC[C@@H]1/C=C(\C)C[C@H](C)C[C@H](OC)[C@H]2O[C@@](O)(C(=O)C(=O)N3CCCC[C@H]3C(=O)O[C@H](/C(C)=C/[C@@H]3CC[C@H]([S+]([O-])CC(=O)O)[C@H](OC)C3)[C@H](C)[C@@H](O)CC1=O)[C@H](C)C[C@@H]2OC (single isomer, unassigned) [Example 73]
2.4 |  | CC[C@@H]1/C=C(\C)C[C@H](C)C[C@H](OC)[C@H]2O[C@@](O)(C(=O)C(=O)N3CCCC[C@H]3C(=O)O[C@H](/C(C)=C/[C@@H]3CC[C@H](SC(=O)C(C)NC(C)=O)[C@H](OC)C3)[C@H](C)[C@@H](O)CC1=O)[C@H](C)C[C@@H]2OC (single isomer, unassigned) [Example 117A]
 | 2.5 | CC[C@@H]1/C=C(\C)C[C@H](C)C[C@H](OC)[C@H]2O[C@@](O)(C(=O)C(=O)N3CCCC[C@H]3C(=O)O[C@H](/C(C)=C/[C@@H]3CC[C@H](SC(=O)C(C)NC(C)=O)[C@H](OC)C3)[C@H](C)[C@@H](O)CC1=O)[C@H](C)C[C@@H]2OC (single isomer, unassigned) [Example 117B]
0.16 |  | CCC1C=C(C)CC(C)CC(OC)C2OC(O)(C(=O)C(=O)N3CCCCC3C(=O)OC(C(C)=CC3CCC(SC(C)=O)C(OC)C3)C(C)C(O)CC1=O)C(C)CC2OC (stereo not shown) [Example 2]
0.75 |  | CCC1C=C(C)CC(C)CC(OC)C2OC(O)(C(=O)C(=O)N3CCCCC3C(=O)OC(C(C)=CC3CCC(S)C(OC)C3)C(C)C(O)CC1=O)C(C)CC2OC (stereo not drawn) [Example 8A, 32-epi-Thiol Ascomycin]
1.8 |  | CCC1C=C(C)CC(C)CC(OC)C2OC(O)(C(=O)C(=O)N3CCCCC3C(=O)OC(C(C)=CC3CCC(SCCC(=O)Oc4ccccc4)C(OC)C3)C(C)C(O)CC1=O)C(C)CC2OC (stereo not shown) [Example 8]
8.9 |  | CCC1C=C(C)CC(C)CC(OC)C2OC(O)(C(=O)C(=O)N3CCCCC3C(=O)OC(C(C)=CC3CCC(SCCC(=O)OC)C(OC)C3)C(C)C(O)CC1=O)C(C)CC2OC (stereo not shown) [Example 9]
3.2 |  | CCOC(=O)CCSC1CCC(C=C(C)C2OC(=O)C3CCCCN3C(=O)C(=O)C3(O)OC(C(OC)CC(C)CC(C)=CC(CC)C(=O)CC(O)C2C)C(OC)CC3C)CC1OC (stereo not shown) [Example 10]
